In patent US20250122171A1, “Substituted Amine Compounds, Compositions and Methods of Use” (Deep Apple Therapeutics, Inc., priority 2023, published 2025):

Experiments:
Assay type in all cases: cell-based
LAD-2 cells [1] = assay: LAD2 Degranulation Assay (Protocol 1), β-hexosaminidase release; details: Homo sapiens, 1 μM Cortistatin-14, 30 minute preincubation, top concentration 3 μM
Procedure: (§1) LAD-2 cells were maintained at 37° C. with 5% CO2 and grown in complete StemPro-34 media supplemented with 1% L-Glutamate, 1% penicillin/streptomycin, and 250 ng/mL human SCF.
On the day of experiment, cells were collected by centrifugation and seeded in 384-well assay plates, at 4,000 cells per well in 10 μl freshly made assay buffer (10 mM HEPES, 130 mM NaCl, 5 mM KCl, 1.8 mM CaCl2), 1.0 mM MgCl2, 5.6 mM glucose, 0.1% BSA, pH=7.40). For dose-response assays, compounds solubilized in 100% DMSO at 30 mM were serially diluted (1:3) first in 100% DMSO, and 2 intermediate dilutions with assay buffer were used to establish a final top concentration of 3 μM (in assay plate). Final DMSO concentration was kept constant at 0.1% across plates for all assays. Cortistatin-14 at 30 mM stock concentration was solubilized in HBSS+0.1% BSA, stored at −20° C. in 5 μl aliquots and discarded after one freeze-thaw cycle. Final concentration of agonist used in both dose-response and single point assays was 1 μM, prepared in assay buffer.
(§2) Antagonist equilibrium was established with 30 minute preincubation, followed by no wash, direct addition, and stimulation of agonist for 30 minutes at 37° C. For detection of β-hexosaminidase activity, assay plates were centrifuged and 5 μl of cell-free supernatant from each assay well was transferred to a black-walled black-bottomed 384-well plate. Substrate solution (1 mM 4-Methylumbelliferyl N-acetyl-β-D-glucosaminide in citrate buffer, pH=4.5, 15 μl) was added to each well and plates were incubated for 1 hour at 37° C. The plate was read on an EnVision XCite plate reader for umbelliferone fluorescence intensity (λex=355 nm, λem=460 nm). Background-subtracted data was analyzed using either GraphPad Prism or a custom Python script to calculate IC50 using either Log[Antagonist] vs. response (4 parameter) nonlinear regression (dose-response assays).

human MRGPRX2 = target: T1, human MRGPRX2 (Homo sapiens, UniProt Q96LB1); assay: MRGPRX2 Activity Assay (IP-1 HTRF, antagonist mode); details: FlpIn TRex-MRGPRX2-HEK293 cells; versus 1 μM Cortistatin-14 agonist; 30 minutes preincubation
T1 construct: expressed in transfected cells; host or cells: FlpIn TRex HEK293 (TRex-MRGPRX2-HEK), doxycycline-induced
T1 sequence (Q96LB1 1-330): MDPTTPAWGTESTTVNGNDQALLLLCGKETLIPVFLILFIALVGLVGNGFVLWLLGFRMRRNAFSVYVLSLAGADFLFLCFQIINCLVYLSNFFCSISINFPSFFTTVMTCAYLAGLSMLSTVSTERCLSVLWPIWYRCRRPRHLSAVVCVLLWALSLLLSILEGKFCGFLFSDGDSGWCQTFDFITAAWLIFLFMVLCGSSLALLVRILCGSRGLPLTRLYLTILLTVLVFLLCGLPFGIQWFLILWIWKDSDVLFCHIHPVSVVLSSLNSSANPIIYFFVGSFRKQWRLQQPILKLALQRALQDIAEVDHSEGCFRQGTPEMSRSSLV
Summary of the method: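 Doxycycline-induced (100 ng/mL, 18-24 h) TRex HEK293 cells stably expressing human MRGPRX2, in HBSS/20 mM HEPES/0.1% BSA/10 mM LiCl. Compounds (top final 30 uM, 1% DMSO) preincubated 30 min, then agonist stimulation 1 h at 37° C without wash. IP-1 accumulation read by HTRF; IC50 from 4-parameter fit.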

LAD-2 cells [2] = assay: LAD2 Degranulation Assay (Protocol 2), β-hexosaminidase release; details: Homo sapiens, 0.5 μM Cortistatin-14, 2 h preincubation, cells without SCF 18-24 hours, top concentration 3 μM
Procedure: as §1
18-24 hours prior to experiment, LAD-2 cells were collected and transferred to growth media without SCF. On the day of experiment, cells were collected by centrifugation and seeded in 384-well assay plates, at 4,000 cells per well in 17 μl freshly made assay buffer (10 mM HEPES, 137 mM NaCl, 2.7 mM KCl, 1.8 mM CaCl2), 1.0 mM MgCl2, 5.6 mM glucose, 0.4 mM NaH2PO4, 0.04% BSA, pH=7.40). For dose-response assays, compounds solubilized in 100% DMSO at 30 mM were serially diluted (1:3) first in 100% DMSO, and 2 intermediate dilutions with assay buffer were used to establish a final top concentration of 3 μM (in assay plate). For single point assays, dilution of DMSO stocks to 250 nM (in assay plate) was performed in the same manner as described for dose-response assays. Final DMSO concentration was kept constant at 0.1% across plates for all assays. Cortistatin-14 at 30 mM stock concentration was solubilized in HBSS+0.1% BSA, stored at −20° C. in 5 μl aliquots and discarded after one freeze-thaw cycle. Final concentration of agonist used in both dose-response and single point assays was 0.5 μM, prepared in assay buffer.
as §2, with “with 2 h” for “with 30 minute”, “[…])” for “15 μl)”, “(dose-response assays) or % control β-hexosaminidase activity (single point” for “(dose-response”

C[C@H](C(=O)Nc1cn(Cc2cc(F)cc(F)c2)cn1)N1CCC(F)(F)[C@@H](c2ccc(=O)[nH]c2)C1 (single isomer, unassigned) [Compound 55]
IC50 (LAD-2 cells [1]): 22 nM
IC50 (human MRGPRX2): 4 nM

O=C(Nc1cn(Cc2cc(F)cc(F)c2)cn1)[C@@H]1C(F)(F)C12CCC2 [Compound 29, (R)—N-(1-(3,5-difluorobenzyl)-1H-imidazol-4-yl)-2,2-difluorospiro[2.3]hexane-1-carboxamide]
IC50 (LAD-2 cells [1]): 212 nM
IC50 (human MRGPRX2): 220 nM

C[C@@H](C(=O)Nc1cn(Cc2cc(F)ccc2Cl)cn1)N1CCC(F)(F)[C@@H](c2cc[n+]([O-])cc2)C1 [Compound 35, 4-((S)-1-((S)-1-((1-(2-chloro-5-fluorobenzyl)-1H-imidazol-4-yl)amino)-1-oxopropan-2-yl)-4,4-difluoropiperidin-3-yl)pyridine 1-oxide]
IC50 (LAD-2 cells [1]): 57 nM
IC50 (human MRGPRX2): 7.9 nM

C[C@H](C(=O)Nc1cn(Cc2cc(F)cc(F)c2)c(C(F)(F)F)n1)N1CCC(F)(F)[C@@H](c2cc[n+]([O-])cc2)C1 (single isomer, unassigned) [Compound 26]
IC50 (LAD-2 cells [1]): 40 nM
IC50 (human MRGPRX2): 13 nM

Cc1nc(NC(=O)[C@H](C)N2CCC(F)(F)[C@@H](c3cc[n+]([O-])cc3)C2)cn1Cc1cc(F)cc(F)c1 (single isomer, unassigned) [Compound 19]
IC50 (LAD-2 cells [1]): 1.6 nM
IC50 (human MRGPRX2): 2.1 nM

C[C@H](C(=O)Nc1nc2ccccc2s1)N1CCC(F)(F)[C@@H](c2cc[n+]([O-])cc2)C1 (single isomer, unassigned) [Compound 85]
IC50 (LAD-2 cells [1]): 100 nM
IC50 (human MRGPRX2): 28 nM

C[C@@H](C(=O)Nc1cn(Cc2cc(F)cc(C#N)c2)cn1)N1CCC(F)(F)[C@@H](c2cc[n+]([O-])cc2)C1 [Compound 53, 4-((S)-1-((S)-1-((1-(3-cyano-5-fluorobenzyl)-1H-imidazol-4-yl)amino)-1-oxopropan-2-yl)-4,4-difluoropiperidin-3-yl)pyridine 1-oxide]
IC50 (LAD-2 cells [1]): 1020 nM
IC50 (human MRGPRX2): 783 nM

C[C@H](C(=O)Nc1cn(Cc2cc(F)cc(F)c2)c(C(F)(F)F)n1)N1CCC(F)(F)[C@H](c2ccc(=O)[nH]c2)C1 (single isomer, unassigned) [Compound 77]
IC50 (LAD-2 cells [1]): 51 nM
IC50 (human MRGPRX2): 18 nM

C[C@@H](C(=O)Nc1cn(Cc2cc(F)cc(F)c2)c(Cl)n1)N1CCC(F)(F)[C@@H](c2cc[n+]([O-])cc2)C1 (single isomer, unassigned) [Compound 80]
IC50 (LAD-2 cells [1]): > 3000 nM
IC50 (human MRGPRX2): 755 nM

C[C@H](C(=O)Nc1cn(Cc2cc(F)cc(F)c2)cn1)N1CCC(F)(F)[C@@H](c2c[nH]c(=O)c(CO)c2)C1 (single isomer, unassigned) [Compound 72]
IC50 (LAD-2 cells [1]): 20 nM
IC50 (human MRGPRX2): 12 nM

Cc1nc(NC(=O)[C@H](C)N2CCC(F)(F)[C@@H](c3cc[n+]([O-])cc3)C2)cn1Cc1ccc(F)cc1F (single isomer, unassigned) [Compound 9]
IC50 (LAD-2 cells [1]): 28 nM
IC50 (human MRGPRX2): 17 nM

C[C@@H](C(=O)Nc1cn(Cc2cc(F)c(F)c(F)c2)cn1)N1CCC(F)(F)[C@@H](c2cc[n+]([O-])cc2)C1 [Compound 34, 4-((S)-4,4-difluoro-1-((S)-1-oxo-1-((1-(3,4,5-trifluorobenzyl)-1H-imidazol-4-yl)amino)propan-2-yl)piperidin-3-yl)pyridine 1-oxide]
IC50 (LAD-2 cells [1]): 25 nM
IC50 (human MRGPRX2): 11 nM

C[C@H](C(=O)Nc1coc(Cc2cc(F)cc(F)c2)n1)N1CCC(F)(F)[C@@H](c2cc[n+]([O-])cc2)C1 (single isomer, unassigned) [Compound 28]
IC50 (LAD-2 cells [1]): 19 nM
IC50 (human MRGPRX2): 2.1 nM

Cc1nc(NC(=O)[C@H](C)N2CCC(F)(F)CC2)cn1Cc1cc(F)cc(F)c1 (single isomer, unassigned) [Compound 21]
IC50 (LAD-2 cells [1]): 0.7 nM
IC50 (human MRGPRX2): 3.3 nM

C[C@@H](C(=O)Nc1cn(Cc2cc(F)cc(F)c2F)cn1)N1CCC(F)(F)[C@@H](c2cc[n+]([O-])cc2)C1 [Compound 39, 4-((S)-4,4-difluoro-1-((S)-1-oxo-1-((1-(2,3,5-trifluorobenzyl)-1H-imidazol-4-yl)amino)propan-2-yl)piperidin-3-yl)pyridine 1-oxide]
IC50 (LAD-2 cells [1]): 3.3 nM
IC50 (human MRGPRX2): 4.1 nM

C[C@@H](C(=O)Nc1cn(Cc2ccc(F)cc2F)c(C(F)(F)F)n1)N1CCC(F)(F)[C@@H](c2cc[n+]([O-])cc2)C1 (single isomer, unassigned) [Compound 7]
IC50 (LAD-2 cells [1]): > 3000 nM
IC50 (human MRGPRX2): 45 nM

C[C@@H](C(=O)Nc1noc(Cc2cc(F)cc(F)c2)n1)N1CCC(F)(F)[C@@H](c2cc[n+]([O-])cc2)C1 (single isomer, unassigned) [Compound 56]
IC50 (LAD-2 cells [1]): 976 nM
IC50 (human MRGPRX2): 76 nM

C[C@H](C(=O)Nc1cn(Cc2cc(F)cc(F)c2)cn1)N1CCC(F)(F)[C@@H](c2ccc(=O)n(C)c2)C1 (single isomer, unassigned) [Compound 68]
IC50 (LAD-2 cells [1]): 30 nM
IC50 (human MRGPRX2): 23 nM

C[C@H](C(=O)Nc1cn(Cc2cc(F)cc(F)c2)c(C(F)F)n1)N1CCC(F)(F)[C@@H](c2cc[n+]([O-])cc2)C1 (single isomer, unassigned) [Compound 83]
IC50 (LAD-2 cells [1]): 13 nM
IC50 (LAD-2 cells [2]): 12 nM
IC50 (human MRGPRX2): 8 nM
